In ChEMBL document CHEMBL4507297, “Data for DCP probe PF-04457845” (2021):

Legend:
[1] = target: TGF-beta receptor type-2 (Homo sapiens) (UniProt P37173); settings: Compound concentration 1000.0 nM
[2] = target: Non-receptor tyrosine-protein kinase TNK1 (Homo sapiens) (UniProt Q13470); settings: Compound concentration 1000.0 nM
[3] = target: Serine/threonine-protein kinase 3 (Homo sapiens) (UniProt Q13188); settings: Compound concentration 1000.0 nM
[4] = target: Mitogen-activated protein kinase kinase kinase 10 (Homo sapiens) (UniProt Q02779); settings: Compound concentration 1000.0 nM
[5] = target: Ribosomal protein S6 kinase alpha-5 (Homo sapiens) (UniProt O75582); settings: Compound concentration 1000.0 nM
Sequence of Ribosomal protein S6 kinase alpha-5 (Homo sapiens) (O75582 whole entry, looked up): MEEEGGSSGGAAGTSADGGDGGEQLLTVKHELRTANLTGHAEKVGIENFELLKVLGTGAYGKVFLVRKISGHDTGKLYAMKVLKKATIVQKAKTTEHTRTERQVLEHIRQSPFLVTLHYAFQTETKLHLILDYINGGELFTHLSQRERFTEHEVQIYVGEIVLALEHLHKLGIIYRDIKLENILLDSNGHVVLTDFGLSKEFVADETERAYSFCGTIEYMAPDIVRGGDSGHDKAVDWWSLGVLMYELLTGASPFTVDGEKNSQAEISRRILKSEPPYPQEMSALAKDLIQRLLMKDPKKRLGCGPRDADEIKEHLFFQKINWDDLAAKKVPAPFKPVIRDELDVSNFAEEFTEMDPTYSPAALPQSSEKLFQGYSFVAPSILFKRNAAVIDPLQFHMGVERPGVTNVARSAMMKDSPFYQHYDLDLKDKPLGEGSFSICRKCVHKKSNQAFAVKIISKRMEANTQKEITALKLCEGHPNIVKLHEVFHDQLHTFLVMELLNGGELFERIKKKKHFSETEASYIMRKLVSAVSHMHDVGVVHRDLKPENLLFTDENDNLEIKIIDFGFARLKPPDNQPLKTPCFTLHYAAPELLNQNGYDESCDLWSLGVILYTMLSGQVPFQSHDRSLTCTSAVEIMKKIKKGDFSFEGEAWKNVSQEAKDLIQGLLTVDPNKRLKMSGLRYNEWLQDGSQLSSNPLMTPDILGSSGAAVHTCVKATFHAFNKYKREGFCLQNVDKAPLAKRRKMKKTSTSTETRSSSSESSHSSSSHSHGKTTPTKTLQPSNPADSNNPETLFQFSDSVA

[6] = target: Non-receptor tyrosine-protein kinase TYK2 (Homo sapiens) (UniProt P29597); settings: Compound concentration 1000.0 nM
[7] = target: Phosphatidylinositol 4,5-bisphosphate 3-kinase catalytic subunit alpha isoform (Homo sapiens) (UniProt P42336); settings: Compound concentration 1000.0 nM
Sequence of Phosphatidylinositol 4,5-bisphosphate 3-kinase catalytic subunit alpha isoform (Homo sapiens) (P42336 whole entry, canonical isoform): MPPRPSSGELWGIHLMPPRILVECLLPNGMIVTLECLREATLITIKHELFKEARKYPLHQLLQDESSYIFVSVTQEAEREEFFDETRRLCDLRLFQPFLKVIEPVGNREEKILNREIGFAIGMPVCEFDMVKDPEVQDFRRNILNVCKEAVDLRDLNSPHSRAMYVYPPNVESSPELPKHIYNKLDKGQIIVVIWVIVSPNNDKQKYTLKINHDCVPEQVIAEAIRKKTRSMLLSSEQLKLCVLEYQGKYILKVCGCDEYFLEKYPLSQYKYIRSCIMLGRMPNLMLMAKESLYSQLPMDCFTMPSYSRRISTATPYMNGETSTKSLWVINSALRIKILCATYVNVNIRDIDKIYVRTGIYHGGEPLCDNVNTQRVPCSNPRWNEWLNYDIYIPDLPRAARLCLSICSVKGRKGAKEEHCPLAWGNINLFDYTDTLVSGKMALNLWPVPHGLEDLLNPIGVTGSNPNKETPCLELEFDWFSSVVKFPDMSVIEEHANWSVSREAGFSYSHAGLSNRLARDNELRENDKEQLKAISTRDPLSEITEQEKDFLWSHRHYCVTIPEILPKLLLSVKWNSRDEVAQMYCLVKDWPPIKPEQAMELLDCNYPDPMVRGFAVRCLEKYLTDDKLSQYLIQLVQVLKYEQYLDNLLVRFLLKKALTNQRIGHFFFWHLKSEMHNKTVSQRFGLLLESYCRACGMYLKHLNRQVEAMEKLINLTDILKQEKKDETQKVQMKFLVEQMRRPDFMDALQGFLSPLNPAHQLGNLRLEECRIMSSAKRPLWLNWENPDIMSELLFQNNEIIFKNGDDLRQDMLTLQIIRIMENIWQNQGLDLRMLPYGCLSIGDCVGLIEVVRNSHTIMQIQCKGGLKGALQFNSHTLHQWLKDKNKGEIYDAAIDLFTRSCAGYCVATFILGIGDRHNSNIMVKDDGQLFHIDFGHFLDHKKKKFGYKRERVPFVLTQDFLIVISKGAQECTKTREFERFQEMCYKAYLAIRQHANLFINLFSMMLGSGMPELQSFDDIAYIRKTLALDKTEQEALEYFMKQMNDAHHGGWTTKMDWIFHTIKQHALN

[8] = target: Atypical kinase COQ8A, mitochondrial (Homo sapiens) (UniProt Q8NI60); settings: Compound concentration 1000.0 nM
[9] = target: Casein kinase I isoform alpha-like (Homo sapiens) (UniProt Q8N752); settings: Compound concentration 1000.0 nM
[10] = target: Serine/threonine-protein kinase ICK (Homo sapiens) (UniProt Q9UPZ9); settings: Compound concentration 1000.0 nM
[11] = target: Insulin-like growth factor 1 receptor (Homo sapiens) (UniProt P08069); settings: Compound concentration 1000.0 nM
[12] = target: Tyrosine-protein kinase CSK (Homo sapiens) (UniProt P41240); settings: Compound concentration 1000.0 nM
[13] = target: T1, Muscarinic acetylcholine receptor M1 (Homo sapiens) (UniProt P11229); settings: Compound concentration 10.0 uM
T1 sequence (whole entry): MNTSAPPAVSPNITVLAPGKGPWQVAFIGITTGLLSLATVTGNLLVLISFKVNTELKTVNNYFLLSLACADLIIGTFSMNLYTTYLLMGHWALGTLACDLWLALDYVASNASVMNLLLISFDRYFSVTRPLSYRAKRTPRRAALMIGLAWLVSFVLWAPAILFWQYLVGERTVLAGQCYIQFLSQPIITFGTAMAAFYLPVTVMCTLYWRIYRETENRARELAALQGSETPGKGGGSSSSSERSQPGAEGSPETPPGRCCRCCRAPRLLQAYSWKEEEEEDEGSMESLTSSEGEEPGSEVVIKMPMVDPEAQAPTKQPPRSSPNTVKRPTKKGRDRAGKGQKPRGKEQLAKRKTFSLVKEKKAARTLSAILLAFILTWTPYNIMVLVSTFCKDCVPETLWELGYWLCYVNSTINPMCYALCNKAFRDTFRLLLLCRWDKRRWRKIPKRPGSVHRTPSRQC

[14] = target: Ribosomal protein S6 kinase alpha-2 (Homo sapiens) (UniProt Q15349); settings: Compound concentration 1000.0 nM
[15] = target: Hormonally up-regulated neu tumor-associated kinase (Homo sapiens) (UniProt P57058); settings: Compound concentration 1000.0 nM
[16] = target: RAC-beta serine/threonine-protein kinase (Homo sapiens) (UniProt P31751); settings: Compound concentration 1000.0 nM
[17] = target: Serine/threonine-protein kinase PAK 1 (Homo sapiens) (UniProt Q13153); settings: Compound concentration 1000.0 nM
[18] = target: Cyclin-dependent kinase-like 3 (Homo sapiens) (UniProt Q8IVW4); settings: Compound concentration 1000.0 nM
[19] = target: Wee1-like protein kinase 2 (Homo sapiens) (UniProt P0C1S8); settings: Compound concentration 1000.0 nM
Sequence of Wee1-like protein kinase 2 (Homo sapiens) (P0C1S8 whole entry, looked up): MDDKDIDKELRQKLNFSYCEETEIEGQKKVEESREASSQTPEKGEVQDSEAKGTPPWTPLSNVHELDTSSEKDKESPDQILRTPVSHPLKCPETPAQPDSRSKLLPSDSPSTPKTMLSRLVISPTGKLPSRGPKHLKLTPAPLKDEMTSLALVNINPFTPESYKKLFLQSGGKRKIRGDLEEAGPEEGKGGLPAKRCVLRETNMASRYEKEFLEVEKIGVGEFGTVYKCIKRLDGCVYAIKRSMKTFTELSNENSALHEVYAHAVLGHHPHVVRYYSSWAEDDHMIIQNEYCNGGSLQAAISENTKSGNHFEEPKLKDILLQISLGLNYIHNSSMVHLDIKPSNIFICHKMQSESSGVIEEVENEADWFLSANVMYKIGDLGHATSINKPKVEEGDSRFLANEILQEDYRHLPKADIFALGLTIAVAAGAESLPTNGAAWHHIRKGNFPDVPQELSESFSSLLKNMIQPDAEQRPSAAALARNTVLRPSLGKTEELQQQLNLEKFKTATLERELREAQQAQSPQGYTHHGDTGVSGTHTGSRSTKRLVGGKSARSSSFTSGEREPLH

[20] = target: Cyclin-dependent kinase 3 (Homo sapiens) (UniProt Q00526); settings: Compound concentration 1000.0 nM
[21] = target: Serine/threonine-protein kinase LATS1 (Homo sapiens) (UniProt O95835); settings: Compound concentration 1000.0 nM
[22] = target: cAMP-dependent protein kinase catalytic subunit PRKX (Homo sapiens) (UniProt P51817); settings: Compound concentration 1000.0 nM
[23] = target: LIM domain kinase 2 (Homo sapiens) (UniProt P53671); settings: Compound concentration 1000.0 nM
[24] = target: Serine/threonine-protein kinase Nek10 (Homo sapiens) (UniProt Q6ZWH5); settings: Compound concentration 1000.0 nM
Sequence of Serine/threonine-protein kinase Nek10 (Homo sapiens) (Q6ZWH5 whole entry): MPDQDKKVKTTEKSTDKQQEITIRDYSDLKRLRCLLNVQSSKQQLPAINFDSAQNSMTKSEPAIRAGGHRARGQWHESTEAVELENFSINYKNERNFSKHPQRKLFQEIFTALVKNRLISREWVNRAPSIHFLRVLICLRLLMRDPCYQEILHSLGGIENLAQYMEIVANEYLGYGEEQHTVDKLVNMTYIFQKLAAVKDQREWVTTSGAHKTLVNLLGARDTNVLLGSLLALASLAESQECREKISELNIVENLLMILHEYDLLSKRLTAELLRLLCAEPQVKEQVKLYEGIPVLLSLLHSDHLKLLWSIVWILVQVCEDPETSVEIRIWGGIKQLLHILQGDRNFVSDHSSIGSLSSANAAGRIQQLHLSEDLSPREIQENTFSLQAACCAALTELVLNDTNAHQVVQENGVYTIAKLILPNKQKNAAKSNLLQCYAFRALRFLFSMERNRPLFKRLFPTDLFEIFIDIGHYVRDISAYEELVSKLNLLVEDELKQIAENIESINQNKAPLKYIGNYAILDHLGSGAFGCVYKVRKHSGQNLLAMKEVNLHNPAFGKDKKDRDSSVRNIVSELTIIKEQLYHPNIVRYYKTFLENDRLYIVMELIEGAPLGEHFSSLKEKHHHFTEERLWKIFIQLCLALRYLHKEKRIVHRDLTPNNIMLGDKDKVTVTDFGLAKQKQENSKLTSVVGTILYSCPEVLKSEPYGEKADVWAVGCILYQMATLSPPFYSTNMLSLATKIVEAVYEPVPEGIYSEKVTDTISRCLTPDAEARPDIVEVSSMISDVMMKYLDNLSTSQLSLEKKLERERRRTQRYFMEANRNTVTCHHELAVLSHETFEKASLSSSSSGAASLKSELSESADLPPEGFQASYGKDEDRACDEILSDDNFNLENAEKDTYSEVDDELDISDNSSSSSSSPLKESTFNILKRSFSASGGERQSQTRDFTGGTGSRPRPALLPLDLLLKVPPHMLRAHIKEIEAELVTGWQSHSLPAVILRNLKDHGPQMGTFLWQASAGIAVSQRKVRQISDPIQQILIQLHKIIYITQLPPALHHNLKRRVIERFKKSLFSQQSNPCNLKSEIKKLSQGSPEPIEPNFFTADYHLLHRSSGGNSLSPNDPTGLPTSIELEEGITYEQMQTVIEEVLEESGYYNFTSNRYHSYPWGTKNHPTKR

[25] = target: Ephrin type-B receptor 4 (Homo sapiens) (UniProt P54760); settings: Compound concentration 1000.0 nM
[26] = target: Dual specificity protein kinase CLK4 (Homo sapiens) (UniProt Q9HAZ1); settings: Compound concentration 1000.0 nM
Sequence of Dual specificity protein kinase CLK4 (Homo sapiens) (Q9HAZ1 whole entry, looked up): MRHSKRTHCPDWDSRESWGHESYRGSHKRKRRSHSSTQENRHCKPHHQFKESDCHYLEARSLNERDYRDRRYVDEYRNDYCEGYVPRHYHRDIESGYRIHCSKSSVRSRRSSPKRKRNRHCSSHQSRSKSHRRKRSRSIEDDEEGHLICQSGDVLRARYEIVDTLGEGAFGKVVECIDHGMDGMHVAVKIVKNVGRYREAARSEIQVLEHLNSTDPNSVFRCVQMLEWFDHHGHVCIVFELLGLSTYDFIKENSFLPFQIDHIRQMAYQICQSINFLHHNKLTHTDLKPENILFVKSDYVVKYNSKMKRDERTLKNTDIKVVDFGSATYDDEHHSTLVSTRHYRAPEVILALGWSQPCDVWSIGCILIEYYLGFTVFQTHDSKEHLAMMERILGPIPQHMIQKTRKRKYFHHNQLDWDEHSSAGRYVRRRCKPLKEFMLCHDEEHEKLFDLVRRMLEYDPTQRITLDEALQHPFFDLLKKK

[27] = target: Serine/threonine-protein kinase Nek9 (Homo sapiens) (UniProt Q8TD19); settings: Compound concentration 1000.0 nM
[28] = target: Ephrin type-B receptor 6 (Homo sapiens) (UniProt O15197); settings: Compound concentration 1000.0 nM
[29] = target: TRAF2 and NCK-interacting protein kinase (Homo sapiens) (UniProt Q9UKE5); settings: Compound concentration 1000.0 nM
[30] = target: Myotonin-protein kinase (Homo sapiens) (UniProt Q09013); settings: Compound concentration 1000.0 nM
[31] = tested on: Receptor-type tyrosine-protein kinase FLT3 (Homo sapiens), P36888 [UNDEFINED MUTATION]; settings: Compound concentration 1000.0 nM
Sequence of Receptor-type tyrosine-protein kinase FLT3 (Homo sapiens), P36888 [UNDEFINED MUTATION] (P36888 whole entry, looked up, change not shown): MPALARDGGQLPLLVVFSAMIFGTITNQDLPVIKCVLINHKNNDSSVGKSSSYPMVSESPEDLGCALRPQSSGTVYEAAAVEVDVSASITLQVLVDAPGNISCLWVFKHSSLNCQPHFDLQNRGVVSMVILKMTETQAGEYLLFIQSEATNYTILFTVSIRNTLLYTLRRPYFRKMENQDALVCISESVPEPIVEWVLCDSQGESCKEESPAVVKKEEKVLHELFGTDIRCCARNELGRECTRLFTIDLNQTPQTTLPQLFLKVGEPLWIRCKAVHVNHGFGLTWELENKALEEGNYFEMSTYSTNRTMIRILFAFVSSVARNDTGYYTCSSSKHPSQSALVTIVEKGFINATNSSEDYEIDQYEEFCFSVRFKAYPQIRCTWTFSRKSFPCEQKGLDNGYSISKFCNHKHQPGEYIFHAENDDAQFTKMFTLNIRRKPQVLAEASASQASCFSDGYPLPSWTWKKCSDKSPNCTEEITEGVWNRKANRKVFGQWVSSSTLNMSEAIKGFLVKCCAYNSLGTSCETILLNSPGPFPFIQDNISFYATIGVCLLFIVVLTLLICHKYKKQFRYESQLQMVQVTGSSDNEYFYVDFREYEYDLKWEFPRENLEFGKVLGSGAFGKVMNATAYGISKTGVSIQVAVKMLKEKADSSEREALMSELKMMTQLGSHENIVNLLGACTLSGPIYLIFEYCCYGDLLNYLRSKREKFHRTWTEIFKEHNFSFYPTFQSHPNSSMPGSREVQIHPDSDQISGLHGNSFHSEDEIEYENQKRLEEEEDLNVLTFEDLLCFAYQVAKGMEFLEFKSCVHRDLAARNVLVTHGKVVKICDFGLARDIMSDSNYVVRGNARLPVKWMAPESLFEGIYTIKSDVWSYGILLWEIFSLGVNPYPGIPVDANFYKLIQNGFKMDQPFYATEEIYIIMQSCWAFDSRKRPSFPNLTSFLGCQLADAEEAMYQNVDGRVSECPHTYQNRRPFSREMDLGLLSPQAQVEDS

[32] = target: Serine/threonine-protein kinase NLK (Homo sapiens) (UniProt Q9UBE8); settings: Compound concentration 1000.0 nM
[33] = target: Protein kinase C delta type (Homo sapiens) (UniProt Q05655); settings: Compound concentration 1000.0 nM
[34] = target: Tyrosine-protein kinase ABL2 (Homo sapiens) (UniProt P42684); settings: Compound concentration 1000.0 nM
[35] = target: Cyclin-G-associated kinase (Homo sapiens) (UniProt O14976); settings: Compound concentration 1000.0 nM
[36] = target: Interleukin-1 receptor-associated kinase 4 (Homo sapiens) (UniProt Q9NWZ3); settings: Compound concentration 1000.0 nM
[37] = target: Dual specificity mitogen-activated protein kinase kinase 1 (Homo sapiens) (UniProt Q02750); settings: Compound concentration 1000.0 nM
[38] = target: Tyrosine-protein kinase Fes/Fps (Homo sapiens) (UniProt P07332); settings: Compound concentration 1000.0 nM
[39] = target: Mitogen-activated protein kinase kinase kinase 19 (Homo sapiens) (UniProt Q56UN5); settings: Compound concentration 1000.0 nM

O=C(Nc1cccnn1)N1CC(C/C=C/c2cncc(Oc3ccc(C(F)(F)F)cn3)n2)C1
inactive: residual activity [1] 100% | residual activity [2] 100% | residual activity [3] 80% | residual activity [4] 100% | residual activity [5] 100% | residual activity [6] 79% | residual activity [7] 100% | residual activity [8] 96% | residual activity [9] 100% | residual activity [10] 80% | residual activity [11] 100% | residual activity [12] 100% | inhibition [13] -6.78% | residual activity [14] 100% | residual activity [15] 89% | residual activity [16] 100% | residual activity [17] 90% | residual activity [18] 95% | residual activity [19] 100% | residual activity [20] 100% | residual activity [21] 91% | residual activity [22] 92% | residual activity [23] 95% | residual activity [24] 100% | residual activity [25] 100% | residual activity [26] 98% | residual activity [27] 100% | residual activity [28] 87% | residual activity [29] 92% | residual activity [30] 100% | residual activity [31] 76% | residual activity [32] 100% | residual activity [33] 100% | residual activity [34] 100% | residual activity [35] 100% | residual activity [36] 100% | residual activity [37] 93% | residual activity [38] 91% | residual activity [39] 90%

O=C(Nc1cccnn1)N1CCC(=Cc2cccc(Oc3ccc(C(F)(F)F)cn3)c2)CC1
inactive: residual activity [1] 76% | residual activity [2] 98% | residual activity [3] 100% | residual activity [4] 100% | residual activity [5] 83% | residual activity [6] 100% | residual activity [7] 100% | residual activity [8] 78% | residual activity [9] 76% | residual activity [10] 91% | residual activity [11] 87% | residual activity [12] 100% | inhibition [13] 29.5% | residual activity [14] 100% | residual activity [15] 87% | residual activity [16] 81% | residual activity [17] 72% | residual activity [18] 81% | residual activity [19] 77% | residual activity [20] 100% | residual activity [21] 100% | residual activity [22] 87% | residual activity [23] 88% | residual activity [24] 100% | residual activity [25] 69% | residual activity [26] 70% | residual activity [27] 100% | residual activity [28] 100% | residual activity [29] 100% | residual activity [30] 100% | residual activity [31] 100% | residual activity [32] 100% | residual activity [33] 93% | residual activity [34] 99% | residual activity [35] 100% | residual activity [36] 97% | residual activity [37] 100% | residual activity [38] 76% | residual activity [39] 85%
